These compounds were tested on Septoria tritici (ATCC 26517) (assay: Minimum Inhibitory Concentration (MIC) (Septoria tritici), CLSI-based microdilution). Conditions: Zymoseptoria tritici, ATCC26517, 168 h, MIC class; 50% reduction in growth of S. tritici; 7 days at 22 °C; read-out: Septoria Rating.
Type: cell-based
Description: C. Minimum Inhibitory Concentration (MIC) (Septoria tritici) Compounds of the present disclosure were assessed for their ability to inhibit the growth of a common strain of the fungal plant pathogen Septoria tritici (ATCC 26517) using a procedure based on a Clinical and Laboratory Standards Institute (CLSI) microdilution assay protocol for filamentous fungi. Stock solutions of the test compounds and standards were prepared in DMSO at 6400 μg/mL. Each stock solution was used to prepare a 2-fold dilution series ranging from 16 to 0.016 μg/mL (total of 11 compound concentrations) in RPMI-1640 (Roswell Park Memorial Institute) medium containing 3-(N-morpholino)propanesulfonic acid (MOPS) buffer and 2% DMSO. A 100 μL aliquot of the dilutions was added to columns 1 (16 μg/mL compound) through 11 (0.016 μg/mL compound) of a 96-well microtiter plate. This format was replicated in a second row of the microtiter plate. Thus, each microtiter plate could include 11 concentrations of four test or control compounds replicated twice. A 100 μL aliquot of RPMI-1640/MOPS/2% DMSO medium was added to column 12 (no compound control) of the microtiter plate. A fresh culture of S. tritici was used to prepare a solution of approximately 5×10^4 colony-forming units per milliliter (cfu/mL) in RPMI/MOPS medium without DMSO. A 100 μL aliquot of this solution was added to all 96 wells in the microtiter plate. […]
In the case of `OC(Cn1cnnn1)(c1ccc(F)cc1F)C(F)(F)c1ccc(-c2ccc(Cl)nc2)cn1` (stereo not drawn) [Compound 30, 1-(6′-Chloro-[3,3′-bipyridin]-6-yl)-2-(2,4-difluorophenyl)-1,1-difluoro-3-(1H-tetrazol-1-yl)propan-2-ol], the MIC is reported as at most 0.5 µg/mL.

The compounds below were run on Puccinia recondita tritici = Puccinia triticina (PUCCRT) (assay: Fungicidal activity vs. wheat leaf rust). Conditions: % disease control @ 50 ppm, wheat seedlings sprayed, inoculated the following day, severity evaluated 7-9 days later, read-out: Puccinia Rating.
Type: in vivo, Puccinia recondita tritici on wheat (variety Yuma)
Description: D. Evaluation of Fungicidal Activity Vs. Leaf Rust (Causal Agent Puccinia recondita tritici=Puccinia triticina; Bayer code PUCCRT). […] Each pot contained 3-8 seedlings. These plants were sprayed until wet with the formulated test compounds. The compounds were formulated at 50 ppm in 10 vol. % acetone plus 90 vol. % Triton X water (deionized water 99.99 wt %+0.01 wt % Triton X100), giving a “formulated test compound.” Formulated test compounds were applied to plants using a turn table sprayer fitted with two opposing air atomization nozzles which delivered approximately 1500 L/ha of spray volume. On the following day, the leaves were inoculated with an aqueous spore suspension of Puccinia recondita tritici and the plants were kept in high humidity overnight to permit spores to germinate and infect the leaf. The plants were then transferred to a greenhouse until disease developed on untreated control plants. Disease severity was evaluated 7-9 days later, depending on the speed of disease development. In each case of Table 3, the Puccinia rating scale is as follows: […]
`OC(Cn1cnnn1)(c1ccc(F)cc1F)C(F)(F)c1ccc(-c2ccc(Cl)nc2)cn1` (stereo not drawn) [Compound 30, 1-(6′-Chloro-[3,3′-bipyridin]-6-yl)-2-(2,4-difluorophenyl)-1,1-difluoro-3-(1H-tetrazol-1-yl)propan-2-ol] was tested, and the pest or weed control at 50 ppm was 80 to 100%. With `OC(Cn1cnnn1)(c1ccc(F)cc1F)C(F)(F)c1ccc(Cc2ccccc2)cn1` (stereo not drawn) [Compound 75, 1-(5-Benzylpyridin-2-yl)-2-(2,4-difluorophenyl)-1,1-difluoro-3-(1H-tetrazol-1-yl)propan-2-ol] the pest or weed control at 50 ppm was 80 to 100%. With `OC(Cn1cnnn1)(c1ccc(F)cc1F)C(F)(F)c1ccc(Cc2ccc(OC(F)(F)F)cc2)cn1` (stereo not drawn) [Compound 76, 2-(2,4-Difluorophenyl)-1,1-difluoro-3-(1H-tetrazol-1-yl)-1-(5-(4-(trifluoromethoxy)benzyl)pyridin-2-yl)propan-2-ol] the pest or weed control at 50 ppm was 80 to 100%. Work on `OC(Cn1cnnn1)(c1ccc(F)cc1F)C(F)(F)c1ccc(Cc2ccc(Cl)cc2)cn1` (stereo not drawn) [Compound 77, 1-(5-(4-Chlorobenzyl)pyridin-2-yl)-2-(2,4-difluorophenyl)-1,1-difluoro-3-(1H-tetrazol-1-yl)propan-2-ol] yielded a pest or weed control at 50 ppm of 80 to 100%. `N#Cc1ccc(OCc2ccc(C(F)(F)C(O)(Cn3cnnn3)c3ccc(F)cc3F)nc2)cc1` (stereo not drawn) [Compound 79, 4-((6-(2-(2,4-Difluorophenyl)-1,1-difluoro-2-hydroxy-3-(1H-tetrazol-1-yl)propyl)pyridin-3-yl)methoxy)benzonitrile] was tested, and the pest or weed control at 50 ppm was 80 to 100%. For `OC(Cc1cnco1)(c1ccc(F)cc1F)C(F)(F)c1ccc(Br)cn1` (stereo not drawn) [Compound 83, 1-(5-Bromopyridin-2-yl)-2-(2,4-difluorophenyl)-1,1-difluoro-3-(oxazol-5-yl)propan-2-ol], the pest or weed control at 50 ppm was 80 to 100%. In the case of `N#Cc1ccc(OCc2ccc(C(F)(F)C(O)(Cn3cnnn3)c3ccc(F)cc3F)nc2)c(F)c1` (stereo not drawn) [Compound 88, 4-((6-(2-(2,4-difluorophenyl)-1,1-difluoro-2-hydroxy-3-(1H-tetrazol-1-yl)propyl)pyridin-3-yl)methoxy)-3-fluorobenzonitrile], the pest or weed control at 50 ppm is reported as 80 to 100%. `N#Cc1cccc(OCc2ccc(C(F)(F)C(O)(Cn3cnnn3)c3ccc(F)cc3F)nc2)c1F` (stereo not drawn) [Compound 89, 3-((6-(2-(2,4-difluorophenyl)-1,1-difluoro-2-hydroxy-3-(1H-tetrazol-1-yl)propyl)pyridin-3-yl)methoxy)-2-fluorobenzonitrile] showed a pest or weed control at 50 ppm of 80 to 100%. `N#Cc1ccc(SCc2ccc(C(F)(F)C(O)(Cn3cnnn3)c3ccc(F)cc3F)nc2)c(F)c1` (stereo not drawn) [Compound 90, 4-(((6-(2-(2,4-difluorophenyl)-1,1-difluoro-2-hydroxy-3-(1H-tetrazol-1-yl)propyl)pyridin-3-yl)methyl)thio)-3-fluorobenzonitrile] showed a pest or weed control at 50 ppm of 40 to 59%. Compound `OC(Cn1cnnn1)(c1ccc(F)cc1F)C(F)(F)c1ccc(COC(F)F)cn1` (stereo not drawn) [Compound 92, 1-(5-((difluoromethoxy)methyl)pyridin-2-yl)-2-(2,4-difluorophenyl)-1,1-difluoro-3-(1H-tetrazol-1-yl)propan-2-ol] has a pest or weed control at 50 ppm of 80 to 100%. For `OC(Cn1cnnn1)(c1ccc(F)cc1F)C(F)(F)c1ccc(-c2ccc(Cl)cn2)cn1` (stereo not drawn) [Compound 93, 1-(5-chloro-[2,3′-bipyridin]-6′-yl)-2-(2,4-difluorophenyl)-1,1-difluoro-3-(1H-tetrazol-1-yl)propan-2-ol], the pest or weed control at 50 ppm was 80 to 100%. Work on `OC(Cn1cnnn1)(c1ccc(F)cc1F)C(F)(F)c1ccc(-c2ccc(C(F)(F)F)cn2)cn1` (stereo not drawn) [Compound 94, 2-(2,4-difluorophenyl)-1,1-difluoro-3-(1H-tetrazol-1-yl)-1-(5-(trifluoromethyl)-[2,3′-bipyridin]-6′-yl)propan-2-ol] yielded a pest or weed control at 50 ppm of 80 to 100%. `N#Cc1ccc(-c2ccc(C(F)(F)C(O)(Cn3cnnn3)c3ccc(F)cc3F)nc2)nc1` (stereo not drawn) [Compound 95, 6′-(2-(2,4-difluorophenyl)-1,1-difluoro-2-hydroxy-3-(1H-tetrazol-1-yl)propyl)-[2,3′-bipyridin]-5-carbonitrile] gave a pest or weed control at 50 ppm of 80 to 100%. `OC(Cn1cnnn1)(c1ccc(F)cc1F)C(F)(F)c1ccc(-c2ccncc2)cn1` (stereo not drawn) [Compound 96, 1-([3,4′-bipyridin]-6-yl)-2-(2,4-difluorophenyl)-1,1-difluoro-3-(1H-tetrazol-1-yl)propan-2-ol] showed a pest or weed control at 50 ppm of 60 to 79%. Compound `N#Cc1ccc(OCc2ccc(C(F)(F)C(O)(Cn3cnnn3)c3ccc(F)cc3F)nc2)nc1` (stereo not drawn) [Compound 98, 6-((6-(2-(2,4-difluorophenyl)-1,1-difluoro-2-hydroxy-3-(1H-tetrazol-1-yl)propyl)pyridin-3-yl)methoxy)nicotinonitrile] has a pest or weed control at 50 ppm of 80 to 100%. `OC(Cn1cnnn1)(c1ccc(F)cc1F)C(F)(F)c1ccc(COc2ccc(C(F)(F)F)cn2)cn1` (stereo not drawn) [Compound 99, 2-(2,4-difluorophenyl)-1,1-difluoro-3-(1H-tetrazol-1-yl)-1-(5-(((5-(trifluoromethyl)pyridin-2-yl)oxy)methyl)pyridin-2-yl)propan-2-ol] gave a pest or weed control at 50 ppm of 80 to 100%. `OC(Cn1cnnn1)(c1ccc(F)cc1F)C(F)(F)c1ccc(COc2ncc(C(F)(F)F)cc2Cl)cn1` (stereo not drawn) [Compound 100, 1-(5-(((3-chloro-5-(trifluoromethyl)pyridin-2-yl)oxy)methyl)pyridin-2-yl)-2-(2,4-difluorophenyl)-1,1-difluoro-3-(1H-tetrazol-1-yl)propan-2-ol] gave a pest or weed control at 50 ppm of 80 to 100%. `OC(Cn1cnnn1)(c1ccc(F)cc1F)C(F)(F)c1ccc(C(F)(F)c2ccc(F)cc2)cn1` (stereo not drawn) [Compound 101, 1-(5-(difluoro(4-fluorophenyl)methyl)pyridin-2-yl)-2-(2,4-difluorophenyl)-1,1-difluoro-3-(1H-tetrazol-1-yl)propan-2-ol] showed a pest or weed control at 50 ppm of 80 to 100%. For `OC(Cn1cnnn1)(c1ccc(F)cc1F)C(F)(F)c1ccc(C(F)(F)c2ccc(C(F)(F)F)cc2)cn1` (stereo not drawn) [Compound 102, 1-(5-(difluoro(4-(trifluoromethyl)phenyl)methyl)pyridin-2-yl)-2-(2,4-difluorophenyl)-1,1-difluoro-3-(1H-tetrazol-1-yl)propan-2-ol], the pest or weed control at 50 ppm was 80 to 100%. With `N#Cc1ccc(C(F)(F)c2ccc(C(F)(F)C(O)(Cn3cnnn3)c3ccc(F)cc3F)nc2)cc1` (stereo not drawn) [Compound 103, 4-((6-(2-(2,4-difluorophenyl)-1,1-difluoro-2-hydroxy-3-(1H-tetrazol-1-yl)propyl)pyridin-3-yl)difluoromethyl)benzonitrile] the pest or weed control at 50 ppm was 80 to 100%.

From patent US9556143B2, “Metalloenzyme inhibitor compounds” (Viamet Pharmaceuticals, Inc., priority 2011, dated 2017)
